Assay results taken from article PMC12287357, “Bacterial effectors mediate kinase reprogramming through mimicry of conserved eukaryotic motifs” (EMBO Reports, 2025).
Square brackets hold non-standard residues; d marks the D form. Peptide text beside a SMILES is read from it. pY = N[C@@H](Cc1ccc(OP(=O)(O)O)cc1)C(=O)O; pS = N[C@@H](COP(=O)(O)O)C(=O)O

Biological target: T1, His6STAT3^127-715 (Homo sapiens, UniProt P40763)
T1 construct: made in house; host or cells: E. coli BL21 (DE3)
Test: Biolayer interferometry (BLI): SteE^138-148 phosphopeptides binding to recombinant STAT3
Details: Octet R8, 25 °C, biotinylated peptide immobilised on streptavidin sensors, pH 7.7, 0.005% Tween-20, steady-state one-site fit, read-out: Kd (affinity of SteE^138-148 phosphorylated peptide for STAT3)
Procedure: Recombinant Salmonella Typhimurium His6-SteE^ΔN20 and human His6-STAT3^127-715 were ligated into pET49 vector using Gibson Assembly; the N-terminal His6-tag is cleavable with HRV 3 C protease.
Binding affinities of His6-STAT3^127-715 to SteE peptides were derived from […] measured on an Octet R8 system (Sartorius) at 25 °C. Biotinylated SteE peptides were synthesised by the Chemical Biology Science Technology Platform at the Francis Crick Institute and dissolved from lyophilised stock in the respective protein buffer to which 0.005% Tween-20 was added (BLI buffer). Appropriate serial dilutions of His6-STAT3^127-715 were prepared in 25 mM HEPES, 200 mM NaCl, 10 mM MgCl2, 0.5 mM TCEP at pH 7.7. SteE peptides were immobilised on Streptavidin (SA) sensors at 0.2 µg/mL by incubation until the linear signal increase started to plateau (up to 160 s), followed by a sensor wash in BLI buffer for 50 s to stabilise the baseline. Association was recorded by incubating the sensors with His6-STAT3^127-715 for 300 s. Subsequent dissociation in BLI buffer was followed for up to 300 s. Data were acquired using Octet BLI Discovery software 12.2.2.20 and processed with Octet BLI Analysis software 12.2.2.4 by subtraction of reference wells without protein and y alignment of the data to the baseline. […]

T1 sequence (P40763 127-715): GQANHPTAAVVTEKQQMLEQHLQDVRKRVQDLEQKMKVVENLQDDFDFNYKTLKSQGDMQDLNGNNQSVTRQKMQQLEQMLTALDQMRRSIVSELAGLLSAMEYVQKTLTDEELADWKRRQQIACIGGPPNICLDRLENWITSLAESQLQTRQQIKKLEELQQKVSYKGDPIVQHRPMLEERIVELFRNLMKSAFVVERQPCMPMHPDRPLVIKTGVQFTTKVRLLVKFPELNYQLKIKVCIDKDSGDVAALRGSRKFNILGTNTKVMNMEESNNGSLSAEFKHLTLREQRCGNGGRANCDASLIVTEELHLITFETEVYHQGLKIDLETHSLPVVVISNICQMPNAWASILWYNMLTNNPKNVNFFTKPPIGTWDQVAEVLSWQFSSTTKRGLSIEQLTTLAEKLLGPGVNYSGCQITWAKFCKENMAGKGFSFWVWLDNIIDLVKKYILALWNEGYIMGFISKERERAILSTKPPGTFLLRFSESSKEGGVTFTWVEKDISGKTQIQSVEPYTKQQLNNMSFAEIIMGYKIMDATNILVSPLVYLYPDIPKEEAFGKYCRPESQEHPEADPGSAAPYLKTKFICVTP

CC[C@H](C)[C@H](NC(=O)[C@H](Cc1ccc(OP(=O)(O)O)cc1)NC(=O)CNC(=O)[C@H](COP(=O)(O)O)NC(=O)[C@@H]1CCCN1C(=O)[C@@H]1CCCN1C(=O)[C@@H](N)CC(N)=O)C(=O)N[C@@H](C)C(=O)N[C@@H](CCC(N)=O)C(=O)N[C@@H](Cc1ccc(O)cc1)C(=O)N[C@@H](CCCNC(=N)N)C(=O)O [SteE_pS141pY143] (H-NPP[pS]G[pY]IAQYR-OH) gave a Kd of 1.4 ± 0.08 µM.
